In brackets after ≈: the same amount, converted by molar mass.
Legend:
[1] = tested on: Pseudomonas aeruginosa (PSA); assay: Vitek 2 susceptibility, urine isolates of children; assay type: cell-based; conditions: both departments
Acinetobacter = assay: Disk diffusion; assay type: cell-based; conditions: 37 isolates selected as resistant to beta-lactams
C. albicans = assay: Antifungal susceptibility; assay type: cell-based, Candida albicans
C. parapsilosis = assay: Antifungal susceptibility; assay type: cell-based, Candida parapsilosis
[2] = tested on: viridans group streptococci (VGS); assay: MIC; assay type: cell-based
nontyphoidal Salmonella = assay: Agar dilution, isolates from chickens 1998–2004; assay type: cell-based, Salmonella spp.
[3] = Linezolid in paediatric oncohaematological patients, retrospective; assay type: in vivo, human
enterococci = assay: Disk diffusion and E-test, faecal isolates of cancer patients; assay type: cell-based, Enterococcus; conditions: 38 strains
Nocardia spp. = assay: E-test on Mueller Hinton agar, 81 clinical isolates; assay type: cell-based; conditions: for MIC50 / MIC90: Nocardia; for MIC range: read after 48 and 72 h
[4] = tested on: glycopeptide intermediate Staphylococcus species (GISS); assay: VITEK II, screening plate and E test, blood isolates; assay type: cell-based, coagulase-negative Staphylococci
MSSA = assay: Agar dilution MIC; assay type: cell-based, Staphylococcus aureus
MRSA = assay: Agar dilution MIC; assay type: cell-based, Staphylococcus aureus
[5] = tested on: viridans group streptococci (VgS) and Streptococcus bovis; assay: Broth microdilution and disk diffusion; assay type: cell-based; conditions: nine species
E. faecalis = assay: E-test susceptibility; assay type: cell-based, Enterococcus faecalis
E. faecium = assay: E-test susceptibility; assay type: cell-based, Enterococcus faecium
[6] = tested on: methicillin susceptible Staphylococcus aureus; assay: NCCLS agar dilution MIC; assay type: cell-based
[7] = tested on: methicillin resistant Staphylococcus aureus; assay: NCCLS agar dilution MIC; assay type: cell-based; conditions: n = 53
[8] = tested on: Pseudomonas putida clinical isolates; assay: Agar dilution MIC; assay type: cell-based
[9] = tested on: Streptococcus agalactiae strains P0162 and P0425; assay: Microdilution; assay type: cell-based

CC1(C)S[C@@H]2[C@H](NC(=O)[C@H](C(=O)O)c3ccsc3)C(=O)N2[C@H]1C(=O)O [ticarcillin]
Susceptible isolates [1]: 74-100%
resistant isolates (Acinetobacter): 86.5%

C[C@@H]1[C@H](O)[C@@H](C)/C=C/C=C/CC/C=C/C=C/C=C/C=C/C(O[C@H]2O[C@H](C)[C@@H](O)[C@H](N)[C@@H]2O)CC2O[C@](O)(CC(O)C(O)CCC(O)CC(O)CC(O)CC(=O)O[C@H]1C)CC(O)C2C(=O)O (stereo partly drawn) [nystatin]
intermediate susceptibility (C. albicans): 2%
resistance (C. albicans): 2%
resistant (C. parapsilosis): 10%

NCC[C@H](O)C(=O)N[C@@H]1C[C@H](N)[C@@H](O[C@H]2O[C@H](CN)[C@@H](O)[C@H](O)[C@H]2O)[C@H](O)[C@H]1O[C@H]1O[C@H](CO)[C@@H](O)[C@H](N)[C@H]1O [AM, amikacin]
Susceptible isolates [1]: 74-100%
MIC50 [2]: 0.12 µg/mL (≈ 0.205 µM)
MIC90 [2]: 1 µg/mL (≈ 1.71 µM)
resistance (nontyphoidal Salmonella; Belgian collection (caecal samples; Belgium, France, Netherlands)): 46%
resistance (nontyphoidal Salmonella; Germany (carcass meat)): 16%

CC(=O)NC[C@H]1CN(c2ccc(N3CCOCC3)c(F)c2)C(=O)O1 [linezolid]
clinical response ([3]; 10 mg/kg bid iv, combined therapy, 38/50 courses): 76%
courses discontinued due to exacerbation of cytopenia ([3]; 1 course): 2%
eradication of Gram(+) organisms in mixed fungal and bacterial infection ([3]; 4/50 courses): 8%
complete resolution after ineffective vancomycin therapy ([3]; 8/16): 50%
eradication, documented Gram(+) infection ([3]; 13/13): 100%
complete resolution of the symptoms ([3]; 34/50 courses): 68%
MIC50 [2]: 1 µg/mL (≈ 2.96 µM)
MIC90 [2]: 1 µg/mL (≈ 2.96 µM)
susceptibility of all isolates ([2]; NCCLS): All isolates were susceptible
sensitivity of all isolated strains (enterococci): All the isolated strains were sensitive
MIC50 (Nocardia spp.): 1 µg/mL (≈ 2.96 µM)
MIC90 (Nocardia spp.): 2 µg/mL (≈ 5.93 µM)
MIC range (Nocardia spp.): 0.047 to 3 mg/L
sensitivity of all GISS strains [4]: all GISS strains demonstrated sensitivity
MIC50 (MSSA; Staphylococcus aureus, MSSA): < 2 µg/mL
MIC90 (MSSA; Staphylococcus aureus, MSSA): < 2 µg/mL
MIC range (MSSA; n = 200): 2 µg/mL (≈ 5.93 µM)
MIC50 (MRSA; Staphylococcus aureus, MRSA): < 2 µg/mL
MIC90 (MRSA; Staphylococcus aureus, MRSA): < 2 µg/mL
MIC range (MRSA; n = 50): 2 µg/mL (≈ 5.93 µM)
% S, range between species [5]: 99.1 – 100.0%
Susceptibility (E. faecalis; ICU, SRGA breakpoints, tigecycline tentative ≤2 μg/ml): 98%
Susceptibility (E. faecalis; non-ICU): 99%
Susceptibility (E. faecium; ICU): 98%
Susceptibility (E. faecium; non-ICU): 99%
MIC50 ([6]; Staphylococcus aureus): 2 µg/mL (≈ 5.93 µM)
MIC90 ([6]; Staphylococcus aureus): 2 µg/mL (≈ 5.93 µM)
MIC range ([6]; n = 41): 0.5 to 2 mg/L
MIC range [7]: 1 to 32 mg/L

C[C@@H]1[C@H](O)[C@@H](C)/C=C/C=C/C=C/C=C/C=C/C=C/C=C/[C@H](O[C@@H]2O[C@H](C)[C@@H](O)[C@H](N)[C@@H]2O)C[C@@H]2O[C@](O)(C[C@@H](O)C[C@@H](O)[C@H](O)CC[C@@H](O)C[C@@H](O)CC(=O)O[C@H]1C)C[C@H](O)[C@H]2C(=O)O [amphotericin B]
susceptibility of all tested strains (C. albicans): susceptible
resistant (C. parapsilosis): 10%

Clc1ccc(COC(Cn2ccnc2)c2ccc(Cl)cc2Cl)cc1 (stereo not drawn) [econazole]
intermediate susceptibility (C. albicans): 2%
resistant and intermediate susceptibility (C. parapsilosis): 63%

CN(C)c1ccc(O)c2c1C[C@H]1C[C@H]3[C@H](N(C)C)C(O)=C(C(N)=O)C(=O)[C@@]3(O)C(O)=C1C2=O [minocycline]
MIC [8]: > 16 µg/mL
MIC50 (Nocardia spp.): 1.5 µg/mL (≈ 3.28 µM)
MIC90 (Nocardia spp.): 3 µg/mL (≈ 6.56 µM)
MIC range (Nocardia spp.): 0.016 to 4 mg/L
resistant isolates (Acinetobacter): 45.9%

C[C@@H]1CN(c2c(F)c(N)c3c(=O)c(C(=O)O)cn(C4CC4)c3c2F)C[C@H](C)N1 [sparfloxacin]
MIC [8]: > 128 µg/mL
MIC ([9]; strain P0162 (ParC Ser79Phe, GyrA Glu85Ala)): 4 µg/mL (≈ 10.2 µM)
MIC ([9]; strain P0425 (ParC Ser79Phe, GyrA Glu85Lys)): > 32 µg/mL
